A short description of test [1]: Inhibitory concentration against alpha-L-Fucosidase of human placenta.
A short description of test [2]: Inhibitory activity against alpha-L-Fucosidase of bovine epididymis expressed as Ki.
Test [3] is described as follows: Inhibitory concentration against alpha-L-Fucosidase of bovine epididymis.
Test [4] can be described thus: Inhibitory activity against alpha-L-fucosidase of bovine epididymis expressed as Ki.
Test [5] concerns the target alpha-L-fucosidase (Bacillus sp. K40T). The experiment in a line: Inhibitory activity against alpha-L-fucosidase of bacillus species (K40T) expressed as Ki.
The nature of test [6]: In vitro inhibition of alpha-L-fucosidase isolated from bovine kidney.

pIC50, pKi: −log10 of the molar value. Where a name gives a salt, the structure may show the parent alone.

Regarding `C[C@@H]1N[C@@H](CO)[C@H](O)[C@@H]1O`, in test [1], the pKi (usually the Ki on a negative log10 scale, so that one unit is a factor of ten) was 5.85.

As for `C[C@H]1N[C@H](CO)[C@H](O)[C@@H]1O`, the pKi in test [1] is 5.05.

In the case of `CC1NCC(O)C1O` (stereo unspecified) [2-Methyl-pyrrolidine-3,4-diol], the pKi in test [1] is 5.70.

In test [1], `CC1NC(S(=O)(=O)O)C(O)C1O` (stereo unspecified) [3,4-Dihydroxy-5-methyl-pyrrolidine-2-sulfonic acid] had a pKi of 8.00.

Regarding `COC(=O)c1cc(C2NCC(O)C2O)oc1C` (stereo unspecified) [5-(3,4-Dihydroxy-pyrrolidin-2-yl)-2-methyl-furan-3-carboxylic acid methyl ester], the pKi in test [2] is 5.19. Also, the pIC50 (in general, −log10 of the IC50, conventionally taken in molar units) in test [3] is 4.00.

Compound `CC1CN[C@@H](N)[C@H](O)C1O` (stereo partly drawn) [(2R,3S)-2-Amino-5-methyl-piperidine-3,4-diol] had a pKi in test [1] of 7.80.

In test [1], `CC1N=C(NN)[C@@H](O)[C@H](O)C1O` (stereo partly drawn) [(4R,5R)-6-Hydrazino-2-methyl-2,3,4,5-tetrahydro-pyridine-3,4,5-triol] gave a pKi of 6.09.

For `CCCCNC1N[C@@H](CO)C(O)[C@@H](O)[C@@H](CO)N1` (stereo partly drawn) [(6S,7R)-2-Butylamino-4,7-bis-hydroxymethyl-[1,3]diazepane-5,6-diol; trifluoroacetate], the negative-log Ki (pKi) in test [1] is 5.55.

In test [4], `OC1CN(Cc2ccccc2)C[C@@H](O)C(O)C1O` (stereo partly drawn) [(R)-1-Benzyl-azepane-3,4,5,6-tetraol] showed a pKi of 4.63.

Regarding `C=CCOC1OC(CO)C(O)C(O)[C@H]1OC1SC(C)C(O)[C@@H](O)C1O` (stereo partly drawn) [(R)-2-((R)-2-Allyloxy-4,5-dihydroxy-6-hydroxymethyl-tetrahydro-pyran-3-yloxy)-6-methyl-tetrahydro-thiopyran-3,4,5-triol], the pKi in test [5] was 6.68; in test [6], 4.52.

In test [1], `CC1SC(Sc2ccc([N+](=O)[O-])cc2)C(O)[C@H](O)C1O` (stereo partly drawn) [(R)-2-Methyl-6-(4-nitro-phenylsulfanyl)-tetrahydro-thiopyran-3,4,5-triol] had a negative logarithm of the Ki (pKi) of 5.48.

The compound `CC1C(N)C(O)[C@H](O)C1O` (stereo partly drawn) [(R)-4-Amino-5-methyl-cyclopentane-1,2,3-triol] gave a pKi in test [1] of 4.82.

`CC1C(NCc2ccccc2)C(O)[C@H](O)C1O` (stereo partly drawn) [(R)-4-Benzylamino-5-methyl-cyclopentane-1,2,3-triol] gave a negative-log Ki (pKi) in test [1] of 6.17.

`CC(=O)NCC1NCC(O)[C@@H](O)[C@@H]1O` (stereo partly drawn) [N-((3R,4R)-3,4,5-Trihydroxy-piperidin-2-ylmethyl)-acetamide] showed a negative-log Ki (pKi) in test [1] of 5.40.

Source of the values: BindingDB's records for doi:10.1016/s0960-894x(01)00497-8 (Universidad De Sevilla, 2001).
